# Results: US8069687B2, “Working media for refrigeration processes” (priority 2005, dated 2011)
# Where two headings read alike, the source gives them in different places.
# Columns and labels:
# [1] = Absorption isotherm: partial pressure of 2,2,2-trifluoroethanol over sorbent material at 70° C.; assay type: physicochemical
# Excerpt: Absorption isotherms result from the amount of a volatile component (here the refrigerant) which, at a predetermined temperature and at pressures which are generally lower than the vapor pressure of the pure refrigerant; dissolves, in an equilibrium state, in a very high-boiling or nonvolatile liquid (here the sorbent material). The pairs of values of concentration of the liquid binary mixture and the pressure of the volatile component over the liquid at a given temperature thereby give an absorption isotherm. […] In the absorption refrigerating machines considered here, a sorbent material shall absorb the refrigerant after its expansion and vaporization at a low pressure. An advantageous sorbent material, at a given pressure, takes up as much refrigerant as possible, whereupon the volume and the masses of the circulating streams minimize (or lower pressure for the same composition). This leads to the fact that the unit achieves a higher degree of efficiency and can be more advantageous with respect to its dimensions and also the amount of absorber used.
# The measurements were carried out at 70° C.
# [2] = Absorption isotherm: partial pressure of R134a over sorbent material at 20° C.; assay type: physicochemical
# Excerpt: Absorption isotherms result from the amount of a volatile component (here the refrigerant) which, at a predetermined temperature and at pressures which are generally lower than the vapor pressure of the pure refrigerant; dissolves, in an equilibrium state, in a very high-boiling or nonvolatile liquid (here the sorbent material). The pairs of values of concentration of the liquid binary mixture and the pressure of the volatile component over the liquid at a given temperature thereby give an absorption isotherm. Such absorption isotherms of high-boiling or nonvolatile liquid substances can be measured using various dynamic or static experimental methods of which, here, by way of example reference is made to a dynamic, gravimetric method, as was presented by Sadowski G., Mokrushina L. V., Arlt, W., “Finite and infinite dilution activity coefficients in polycarbonate systems”, Fluid Phase Equilibria, 139 (1997) 391-493. In the absorption refrigerating machines considered here, a sorbent material shall absorb the refrigerant after its expansion and vaporization at a low pressure. An advantageous sorbent material, at a given pressure, takes up as much refrigerant as possible, whereupon the volume and the masses of the circulating streams minimize (or lower pressure for the same composition). This leads to the fact that the unit achieves a higher degree of efficiency and can be more advantageous with respect to its dimensions and also the amount of absorber used.
# The measurements were carried out at 20° C.
# [3] = as described by N. Bicak; cited from earlier work
# [4] = 25° C.; as described by N. Bicak; cited from earlier work
# [5] = Stability to hydrolysis
# [6] = Excerpt: If, as described in • W. Pennington; How to find accurate vapor pressures of lithium bromide water solutions; Refrig. Eng. 63 (May 1955) 57-61 or • D. A. Boryta, A. J. Maas, C. B. Grant; Vapor pressure-temperature-concentration relationship for system lithium bromide and water (40-70% lithium bromide); J. Chem. Eng. Data 20 (1975) 316-319 or • S. Iyoki, T. Uemura; Vapor pressure of the water-lithium bromide system and water-lithium bromide-zinc bromide-lithium chloride system at high temperatures; Int. […] In the prior art, the use of LiBr as absorbent and water as refrigerant is very widespread.
# (§1) If, as described in • W. Pennington; How to find accurate vapor pressures of lithium bromide water solutions; Refrig. Eng. 63 (May 1955) 57-61 or • D. A. Boryta, A. J. Maas, C. B. Grant; Vapor pressure-temperature-concentration relationship for system lithium bromide and water (40-70% lithium bromide); J. Chem. Eng. Data 20 (1975) 316-319 or • S. Iyoki, T. Uemura; Vapor pressure of the water-lithium bromide system and water-lithium bromide-zinc bromide-lithium chloride system at high temperatures; Int.
# as §1, with “Ethoxylated cocodiethanolammonium chloride is an ionic liquid which can be obtained under the name TEGO IL K5 from Degussa AG. If,” for “If,”
# as §1, with “The ionic liquid diethylpolypropoxymethylammonium chloride can be obtained from Degussa AG under the name TEGO IL P9. If,” for “If,”
# as §1
# [7] = Crystallization of the sorbent in water; assay type: physicochemical; conditions: T≧20° C.; concentrations greater than 65 mass % ionic liquid in water
# [8] = in vivo; cited from earlier work
# [9] = depending on system temperature; prior art; cited from earlier work
# [10] = mass fraction of ionic liquid 0.20
# [11] = mass fraction of ionic liquid 0.40
# [12] = mass fraction of ionic liquid 0.60
# [13] = mass fraction of ionic liquid 0.80
# [14] = mass fraction of the sorbent material 0.20
# [15] = mass fraction of the sorbent material 0.40
# [16] = mass fraction of the sorbent material 0.60
# [17] = mass fraction of the sorbent material 0.80
# [18] = 20° C., 80 mass % ionic liquid and 20 mass % water
# [19] = 20° C., 80 mass % ionic liquid and 20 mass % water, pure water 23.37 mbar
# [20] = 40° C., 92 mass % ionic liquid and 8 mass % water
Compound,"Partial pressure of 2,2,2-trifluoroethanol [1, 10] [kPa]","Partial pressure of 2,2,2-trifluoroethanol [1, 11] [kPa]","Partial pressure of 2,2,2-trifluoroethanol [1, 12] [kPa]","Partial pressure of 2,2,2-trifluoroethanol [1, 13] [kPa]","Partial pressure of R134a [2, 14] [kPa]",crystallization in water [7],further results
"1,3-dimethylimidazolium dimethyl phosphate [MMIM MMPO4]",39.7,10.7,3.2,0.8,439,,"Partial pressure of R134a [2, 15]: 303 kPa; Partial pressure of R134a [2, 16]: 164 kPa; Partial pressure of R134a [2, 17]: 57 kPa"
NCCO.O=CO [2-Hydroxyethylammonium formate],,,,,,,"thermal stability, upper temperature [3]: up to 150 °C; vapor pressure [4]: 2.2×10^−2 torr; stability to hydrolysis [5]: comparatively poor stability to hydrolysis"
"CCCCn1cc[n+](C)c1.F[B-](F)(F)F [BMIM BF4, 1-butyl-3-methylimidazolium tetrafluoroborate, reference compound]",70.2,53.0,35.9,18.0,,,
"CCCCn1cc[n+](C)c1.[Br-] [BMIM Br, 1-butyl-3-methylimidazolium bromide, reference compound]",42.2,15.1,5.6,1.6,,,
CCn1cc[n+](C)c1.[Cl-] [EMIM Cl],19.3,4.0,1.0,0.2,327,,"Partial pressure of R134a [2, 15]: 135 kPa; Partial pressure of R134a [2, 16]: 37 kPa; Partial pressure of R134a [2, 17]: 7 kPa"
CCn1cc[n+](C)c1 [EMIM EtSO4],,,,,360,does not crystallize out,"water partial pressure [6, 18]: 15 mbar; factor by which the vapor pressure of pure water was lowered [6, 19]: 1.56; LD50 [8]: > 2000 mg/kg"
CCn1cc[n+](C)c1.CS(=O)(=O)[O-] [EMIM MeSO3],39.7,13.5,4.6,1.2,,does not crystallize out,"water partial pressure ([6]; 30° C., 87 mass % ionic liquid and 13 mass % water): 9 mbar; factor by which the vapor pressure of pure water was lowered ([6]; 30° C., 87 mass % ionic liquid and 13 mass % water, pure water 42.41 mbar): 4.7"
CC(=O)[O-].CCn1cc[n+](C)c1 [EMIM OAc],24.7,3.7,0.8,0.2,360,,"Partial pressure of R134a [2, 15]: 175 kPa; Partial pressure of R134a [2, 16]: 66 kPa; Partial pressure of R134a [2, 17]: 17 kPa"
CCn1cc[n+](C)c1.[OH-] [EMIM OH],5.0,<0.1,<0.1,<0.1,345,,"Partial pressure of R134a [2, 15]: 112 kPa; Partial pressure of R134a [2, 16]: 20 kPa; Partial pressure of R134a [2, 17]: 3 kPa"
"[Br-].[Li+] [LiBr, lithium bromide]",,,,,,,LiBr concentration above which LiBr crystallizes in water [9]: above 60 mass %
"CCCC[n+]1ccc(C)cc1.[Cl-] [MBP Cl, 1-butyl-4-methylpyridinium chloride]",25.2,5.0,1.3,0.3,,,
"C[N+](C)(CCO)CCO.[Cl-] [Salt A, bis(2-hydroxyethyl)dimethylammonium chloride]",33.0,11.1,3.6,0.7,,,
"CS(=O)(=O)[O-].C[N+](C)(CCO)CCO [Salt B, bis(2-hydroxyethyl)dimethylammonium methylsulfonate]",42.0,,,1.6,,does not crystallize out,"water partial pressure [6, 18]: 14 mbar; pressure reduction factor compared with the vapor pressure of pure water [6, 20]: 5.3; water partial pressure [6, 20]: approximately 13.9 mbar"
diethylpolypropoxymethylammonium chloride [TEGO IL P9],,,,,,does not crystallize out,"water partial pressure ([6]; 30° C., 94 mass % ionic liquid and 6 mass % water): 6 mbar; factor by which the vapor pressure of pure water was decreased ([6]; 30° C., 94 mass % ionic liquid and 6 mass % water, pure water 42.41 mbar): 7.07"
ethoxylated cocodiethanolammonium chloride [TEGO IL K5],,,,,,does not crystallize out,"water partial pressure [6, 18]: 17 mbar; factor by which the vapor pressure of pure water was lowered [6, 19]: 1.38"
